# Experimental data reported in patent US7034036B2, “Inhibitors of ABC drug transporters at the blood-brain barrier” (Pain Therapeutics, Inc., priority 2000, dated 2006).
# Tests used:
# mice [1] = test: Tolerance to oxycodone in mice, parallel experiments; assay type: in vivo
# PGP1a = test: Vanadate-sensitive PGP ATPase activity in PGP membranes; assay type: biochemical
# Procedure: The test substances were incubated in the membranes and supplemented with MgATP, with and without sodium orthovanadate present. Orthovanadate inhibits PGP by trapping MgADP in the nucleotide binding site. Thus, the ATPase activity measured in the presence of orthovanadate represents non-PGP ATPase activity and was subtracted from the activity generated without orthovanadate to yield vanadate-sensitive ATPase activity.
# ATPase assays were conducted in 96-well microtiter plates. A 0.06 ml reaction mixture containing 40 μg PGP membranes, test substance, and 4 mM MgATP, in buffer containing 50 mM Tris-MES, 2 mM EGTA, 50 mM KCl, 2 mM dithiothreitol, and 5 mM sodium azide, plus organic solvent was incubated at 37° C. for 20 minutes. […] Identical reaction mixtures containing 100 μM sodium orthovanadate were assayed in parallel. The reactions were stopped by the addition of 30 μl of 10% SDS+Antifoam A. The incubations were followed with addition of 200 μl of 35 mM Ammonium Molybdate in 15 mM Zinc Acetate:10% Ascorbic Acid (1:4) and incubated for an additional 20 minutes at 37° C. Additionally, 0.06 ml aliquots of potassium phosphate standards prepared in the buffer described above, were incubated in the plates containing the test and control substances, with SDS and detection reagent added. The liberation of inorganic phosphate was detected by its absorbance at 800 nm and quantitated by comparing the absorbance to a phosphate standard curve. The concentration dependence of the PGP was analyzed for evidence of saturation of PGP-ATPase activity, and apparent kinetic parameters were calculated by non-linear regression.
# mice [2] = test: Tail flick anti-nociception, naltrexone given with morphine from day 1 (Groups C, D, combined analysis); assay type: in vivo; set-up: Enhancement of Latency (tail flick) / Enhancement of Latency by Naltrexone (tail flick): unit not given here
# Procedure: In a third series of experiments, 40 male mice were randomized into 5 groups of eight. All mice were administered single 3 mg/kg morphine daily (b.i.d.), beginning on Day 1.
# In a final series of experiments, 40 female mice were randomized into 5 groups of eight. All mice were administered single 3 mg/kg morphine daily (b.i.d.), beginning on Day 1.
smiles,measurement,setting,value
"O=C1CC[C@@]2(O)[C@H]3Cc4ccc(O)c5c4[C@@]2(CCN3CC2CC2)[C@H]1O5 [Naltrexone, naltrexone]",Development of tolerance to oxycodone,"mice [1]; female mice, 1 or 5 mg/kg oxycodone with 1 pg/kg, 1 ng/kg or 1 μg/kg naltrexone or 1 pg/kg nor-BNI",None of the mice developed tolerance
same,Development of tolerance to oxycodone,"mice [1]; male mice, 0.1 mg/kg oxycodone plus 1 ng/kg naltrexone, 1 ng/kg nalmefene or 1 pg/kg nor-BNI",did not develop tolerance
same,Vanadate-sensitive ATPase Activity,PGP1a; 100 μM,4.6 nmol/mg/min
same,Inhibition of the ATPase associated with PGP1a,PGP1a; semi-quantitative assay,shown to inhibit
same,Enhancement of Latency by Naltrexone (tail flick),"mice [2]; Table 15, combined analysis (title prints Female Mice), Group 2: morphine 3 mg/kg + naltrexone 3 ng/kg b.i.d., Day 1",12.8
same,Enhancement of Latency by Naltrexone (tail flick),"mice [2]; Table 15, combined analysis (title prints Female Mice), Group 2: morphine 3 mg/kg + naltrexone 3 ng/kg b.i.d., Day 3",9.3
same,Enhancement of Latency by Naltrexone (tail flick),"mice [2]; Table 15, combined analysis (title prints Female Mice), Group 2: morphine 3 mg/kg + naltrexone 3 ng/kg b.i.d., Day 5",5.9
same,Enhancement of Latency by Naltrexone (tail flick),"mice [2]; Table 15, combined analysis (title prints Female Mice), Group 2: morphine 3 mg/kg + naltrexone 3 ng/kg b.i.d., Day 8",5.8
same,Enhancement of Latency by Naltrexone (tail flick),"mice [2]; Table 15, combined analysis (title prints Female Mice), Group 2: morphine 3 mg/kg + naltrexone 3 ng/kg b.i.d., Day 10",3.5
same,Enhancement of Latency by Naltrexone (tail flick),"mice [2]; Table 15, combined analysis (title prints Female Mice), Group 3: morphine 3 mg/kg + naltrexone 30 ng/kg b.i.d., Day 1",12.4
same,Enhancement of Latency by Naltrexone (tail flick),"mice [2]; Table 15, combined analysis (title prints Female Mice), Group 3: morphine 3 mg/kg + naltrexone 30 ng/kg b.i.d., Day 3",10.0
same,Enhancement of Latency by Naltrexone (tail flick),"mice [2]; Table 15, combined analysis (title prints Female Mice), Group 3: morphine 3 mg/kg + naltrexone 30 ng/kg b.i.d., Day 5",7.2
same,Enhancement of Latency by Naltrexone (tail flick),"mice [2]; Table 15, combined analysis (title prints Female Mice), Group 3: morphine 3 mg/kg + naltrexone 30 ng/kg b.i.d., Day 8",4.9
same,Enhancement of Latency by Naltrexone (tail flick),"mice [2]; Table 15, combined analysis (title prints Female Mice), Group 3: morphine 3 mg/kg + naltrexone 30 ng/kg b.i.d., Day 10",6.6
same,Enhancement of Latency by Naltrexone (tail flick),"mice [2]; Table 15, combined analysis (title prints Female Mice), Group 4: morphine 3 mg/kg + naltrexone 300 ng/kg b.i.d., Day 1",15.6
same,Enhancement of Latency by Naltrexone (tail flick),"mice [2]; Table 15, combined analysis (title prints Female Mice), Group 4: morphine 3 mg/kg + naltrexone 300 ng/kg b.i.d., Day 3",12.7
same,Enhancement of Latency by Naltrexone (tail flick),"mice [2]; Table 15, combined analysis (title prints Female Mice), Group 4: morphine 3 mg/kg + naltrexone 300 ng/kg b.i.d., Day 5",6.8
same,Enhancement of Latency by Naltrexone (tail flick),"mice [2]; Table 15, combined analysis (title prints Female Mice), Group 4: morphine 3 mg/kg + naltrexone 300 ng/kg b.i.d., Day 8",4.8
same,Enhancement of Latency by Naltrexone (tail flick),"mice [2]; Table 15, combined analysis (title prints Female Mice), Group 4: morphine 3 mg/kg + naltrexone 300 ng/kg b.i.d., Day 10",6.0
same,Enhancement of Latency by Naltrexone (tail flick),"mice [2]; Table 15, combined analysis (title prints Female Mice), Group 5: morphine 3 mg/kg + naltrexone 3000 ng/kg b.i.d., Day 1",12.9
same,Enhancement of Latency by Naltrexone (tail flick),"mice [2]; Table 15, combined analysis (title prints Female Mice), Group 5: morphine 3 mg/kg + naltrexone 3000 ng/kg b.i.d., Day 3",11.3
same,Enhancement of Latency by Naltrexone (tail flick),"mice [2]; Table 15, combined analysis (title prints Female Mice), Group 5: morphine 3 mg/kg + naltrexone 3000 ng/kg b.i.d., Day 5",7.7
same,Enhancement of Latency by Naltrexone (tail flick),"mice [2]; Table 15, combined analysis (title prints Female Mice), Group 5: morphine 3 mg/kg + naltrexone 3000 ng/kg b.i.d., Day 8",6.2
same,Enhancement of Latency by Naltrexone (tail flick),"mice [2]; Table 15, combined analysis (title prints Female Mice), Group 5: morphine 3 mg/kg + naltrexone 3000 ng/kg b.i.d., Day 10",7.0
same,Enhancement of Latency by Naltrexone (tail flick),"mice [2]; female mice, Group 2: morphine 3 mg/kg + naltrexone 3 ng/kg b.i.d. from day 1, Day 1",12.2
same,Enhancement of Latency by Naltrexone (tail flick),"mice [2]; female mice, Group 2: morphine 3 mg/kg + naltrexone 3 ng/kg b.i.d. from day 1, Day 3",11.0
same,Enhancement of Latency by Naltrexone (tail flick),"mice [2]; female mice, Group 2: morphine 3 mg/kg + naltrexone 3 ng/kg b.i.d. from day 1, Day 5",4.3
same,Enhancement of Latency by Naltrexone (tail flick),"mice [2]; female mice, Group 2: morphine 3 mg/kg + naltrexone 3 ng/kg b.i.d. from day 1, Day 7",6.1
same,Enhancement of Latency by Naltrexone (tail flick),"mice [2]; female mice, Group 2: morphine 3 mg/kg + naltrexone 3 ng/kg b.i.d. from day 1, Day 10",4.4
same,Enhancement of Latency by Naltrexone (tail flick),"mice [2]; female mice, Group 2: morphine 3 mg/kg + naltrexone 3 ng/kg b.i.d. from day 1, Day 11, single bolus 10 μg/kg naltrexone in addition",−1.0
same,Enhancement of Latency by Naltrexone (tail flick),"mice [2]; female mice, Group 3: morphine 3 mg/kg + naltrexone 30 ng/kg b.i.d. from day 1, Day 1",12.4
same,Enhancement of Latency by Naltrexone (tail flick),"mice [2]; female mice, Group 3: morphine 3 mg/kg + naltrexone 30 ng/kg b.i.d. from day 1, Day 3",10.7
same,Enhancement of Latency by Naltrexone (tail flick),"mice [2]; female mice, Group 3: morphine 3 mg/kg + naltrexone 30 ng/kg b.i.d. from day 1, Day 5",6.9
same,Enhancement of Latency by Naltrexone (tail flick),"mice [2]; female mice, Group 3: morphine 3 mg/kg + naltrexone 30 ng/kg b.i.d. from day 1, Day 7",2.4
same,Enhancement of Latency by Naltrexone (tail flick),"mice [2]; female mice, Group 3: morphine 3 mg/kg + naltrexone 30 ng/kg b.i.d. from day 1, Day 10",9.3
same,Enhancement of Latency by Naltrexone (tail flick),"mice [2]; female mice, Group 3: morphine 3 mg/kg + naltrexone 30 ng/kg b.i.d. from day 1, Day 11, single bolus 10 μg/kg naltrexone in addition",−0.7
same,Enhancement of Latency by Naltrexone (tail flick),"mice [2]; female mice, Group 4: morphine 3 mg/kg + naltrexone 300 ng/kg b.i.d. from day 1, Day 1",15.0
same,Enhancement of Latency by Naltrexone (tail flick),"mice [2]; female mice, Group 4: morphine 3 mg/kg + naltrexone 300 ng/kg b.i.d. from day 1, Day 3",10.3
same,Enhancement of Latency by Naltrexone (tail flick),"mice [2]; female mice, Group 4: morphine 3 mg/kg + naltrexone 300 ng/kg b.i.d. from day 1, Day 5",1.9
